This test has as its system ALP in NHAC (normal human articular chondrocytes). In words: Alkaline Phosphatase (ALP) activity assay: ALP staining and quantitation in NHACs (prevention of chondrocyte hypertrophy). It is filed as cell-based. To be noted: human IL-1 beta 10 ng/mL, 12 days; for IC50: Fast Blue RR staining, high content imaging. The procedure:
The compounds of the present invention were evaluated in the Alkaline Phosphatase (ALP) activity assay to determine the ability of the compounds to prevent chondrocyte hypertrophy in normal human articular chondrocytes (NHACs).
Normal human articular chondrocytes (NHACs) were purchased from PromoCell (Heidelberg, Germany) and grown in Chondrocyte Growth Medium (CGM; Lonza, Walkersville, Md.).
NHACs were expanded in Chondrocyte Growth Medium (CGM) from Lonza until they reached a 60-80% confluency. To initiate differentiation, 7,500 cells were plated/well with indicated test compound dose in 384-well Cell Carrier Ultra plates (Perkin Elmer) with DMEM (SH30022—HyClone) containing 10% FBS (35-015-CV—Corning), 1% Pen/Strep antibiotics (SV30010—HyClone), and 1% Normocin (50 mg/mL—InvivoGen). Cells with test compounds were incubated at 37° C., 5% CO2 for 5 hours and then added human IL-1 beta (AF-200-1B—Peprotech) to each well at a final concentration of 10 ng/mL and incubated at 37° C., 5% CO2 for 12 days.
To detect the presence of hypertrophic cells, NHACs were fixed with 4% paraformaldehyde and Hoechst 33342 (Invitrogen) dye for 30 minutes, rinsed in PBS, then stained with Fast Blue RR Salt (F0500—Sigma) with Naphthol AS-MX Phosphate Alkaline Solution, 0.25% (855—Sigma-Aldrich).
The staining was imaged by fluoresecent microscopy, using the 561 nm wavelength, and/or quantified by high content imaging with the ImageXpress Confocal (Molecular Devices, Sunnyvale, CA). Data analyses were performed with a customized multiwavelength cell-scoring application The activity of the compounds of the present invention in the ALP assay is summarized in Table 2.

The mark [1] stands for this setting: Chondrocyte, 288 h, read-out: ALP in NHAC (% Efficacy).

Like-named read-outs stand apart in the source and are kept apart here.

By IC50 is commonly meant the concentration that gives 50% inhibition. Low values mean greater potency, high ones weaker potency. For the setting “Chondrocyte, 288 h”, `Cc1c(NC(=O)[C@]23C[C@@]2(c2ccnc(F)c2)[C@H]2O[C@@H]3C[C@@H]2O)cccc1C(F)(F)F` (racemic) [Example 10, rac-(1R,2R,4S,5R,6S)-4-(2-fluoropyridin-4-yl)-6-hydroxy-N-(2-methyl-3-(trifluoromethyl)phenyl)-8-oxatricyclo[3.2.1.02,4]octane-2-carboxamide] returned an IC50 of more than 30 µM. For the same compound, the Emax under setting [1] came to 6%.

`COc1cc([C@@]23C[C@]2(C(=O)Nc2ccc(C(F)(F)F)c(Cl)c2)[C@H]2C[C@H](O)[C@@H]3O2)ccn1` (racemic) [Example 74, rac-(1R,2R,4S,5R,6S)—N-(3-chloro-4-(trifluoromethyl)phenyl)-6-hydroxy-4-(2-methoxypyridin-4-yl)-8-oxatricyclo[3.2.1.02,4]octane-2-carboxamide] came in with an IC50 (Chondrocyte, 288 h) of 3.4 µM. The Emax under setting [1] worked out at 77%.

The compound `COc1cc([C@@]23C[C@]2(C(=O)Nc2cc(C(F)(F)F)ccn2)[C@H]2C[C@H](O)[C@@H]3O2)ccn1` (racemic) [Example 20, rac-(1R,2R,4S,5R,6S)-6-hydroxy-4-(2-methoxypyridin-4-yl)-N-(4-(trifluoromethyl)pyridin-2-yl)-8-oxatricyclo[3.2.1.02,4]octane-2-carboxamide] returned a half-inhibitory concentration (IC50) (Chondrocyte, 288 h) of more than 30 µM. The Emax under setting [1] was found to be 24%.

Compound `COc1cc([C@@]23C[C@]2(C(=O)Nc2ccc(C(F)(F)F)cc2)[C@H]2C[C@H](O)[C@@H]3O2)ccn1` (racemic) [Example 76, rac-(1R,2R,4S,5R,6S)-6-hydroxy-4-(2-methoxypyridin-4-yl)-N-(4-(trifluoromethyl)phenyl)-8-oxatricyclo[3.2.1.02,4]octane-2-carboxamide] displayed a 50% inhibitory concentration (IC50) (Chondrocyte, 288 h) of 15 µM. Moreover, under setting [1], the Emax came out at 57%.

With `Cn1cc([C@@]23C[C@]2(C(=O)Nc2cc(F)cc(C(F)(F)F)c2)[C@H]2C[C@H](O)[C@@H]3O2)c(C(F)(F)F)n1` (racemic) [Example 56, rac-(1R,2R,4S,5R,6S)—N-(3-fluoro-5-(trifluoromethyl)phenyl)-6-hydroxy-4-(1-methyl-3-(trifluoromethyl)-1H-pyrazol-4-yl)-8-oxatricyclo[3.2.1.02,4]octane-2-carboxamide], for the setting “Chondrocyte, 288 h”, the IC50 is more than 30 µM. In addition, the Emax under setting [1] was determined as 30%.

For `COc1cc([C@@]23C[C@]2(C(=O)Nc2ccc(C)c(C(F)(F)F)c2)[C@H]2C[C@H](O)[C@@H]3O2)ccn1` (racemic) [Example 28, rac-(1R,2R,4S,5R,6S)-6-hydroxy-4-(2-methoxypyridin-4-yl)-N-(4-methyl-3-(trifluoromethyl)phenyl)-8-oxatricyclo[3.2.1.02,4]octane-2-carboxamide], for the setting “Chondrocyte, 288 h”, the IC50 is more than 30 µM. In addition, the Emax under setting [1] was determined as 13%.

Consider “(1R,2R,4S,5R,6S)—N-(2-cyano-5-(trifluoromethyl)phenyl)-6-hydroxy-4-(2-methoxypyridin-4-yl)-8-oxatricyclo[3.2.1.02,4]octane-2-carboxamide or (1S,2S,4R,5S,6R)—N-(2-cyano-5-(trifluoromethyl)phenyl)-6-hydroxy-4-(2-methoxypyridin-4-yl)-8-oxatricyclo[3.2.1.02,4]octane-2-carboxamide [Example 39a]”, for which the Emax entry is on record as “(90) %” and the IC50 amounted to 0.29 µM.

Where the note is “Chondrocyte, 288 h”, `Cn1cc([C@@]23C[C@]2(C(=O)Nc2cc(C(F)(F)F)cc(Cl)n2)[C@H]2C[C@H](O)[C@@H]3O2)c(C(F)(F)F)n1` (racemic) [Example 44, rac-(1R,2R,4S,5R,6S)—N-(6-chloro-4-(trifluoromethyl)pyridin-2-yl)-6-hydroxy-4-(1-methyl-3-(trifluoromethyl)-1H-pyrazol-4-yl)-8-oxatricyclo[3.2.1.02,4]octane-2-carboxamide] displayed an IC50 of more than 30 µM. The Emax under setting [1] was 37%.

In turn, `COc1cc([C@@]23C[C@]2(C(=O)Nc2cccc(C(F)(F)F)c2F)[C@H]2C[C@H](O)[C@@H]3O2)ccn1` (racemic) [Example 31, rac-(1R,2R,4S,5R,6S)—N-(2-fluoro-3-(trifluoromethyl)phenyl)-6-hydroxy-4-(2-methoxypyridin-4-yl)-8-oxatricyclo[3.2.1.02,4]octane-2-carboxamide] came in with an IC50 (Chondrocyte, 288 h) of more than 30 µM. Also, the Emax under setting [1] worked out at 15%.

On to `CCOc1cc(C(F)(F)F)cc(NC(=O)[C@]23C[C@@]2(c2ccnc(OC)c2)[C@H]2O[C@@H]3C[C@@H]2O)n1` (racemic) [Example 25, rac-(1R,2R,4S,5R,6S)—N-(6-ethoxy-4-(trifluoromethyl)pyridin-2-yl)-6-hydroxy-4-(2-methoxypyridin-4-yl)-8-oxatricyclo[3.2.1.02,4]octane-2-carboxamide], for which, under “Chondrocyte, 288 h”, the IC50 is more than 30 µM. Besides, the Emax under setting [1] is 0%.

Compound `Cc1ccc(C(F)(F)F)cc1NC(=O)[C@]12C[C@@]1(c1cn(C)nc1C(F)(F)F)[C@H]1O[C@@H]2C[C@@H]1O` (racemic) [Example 53, rac-(1R,2R,4S,5R,6S)-6-hydroxy-4-(1-methyl-3-(trifluoromethyl)-1H-pyrazol-4-yl)-N-(2-methyl-5-(trifluoromethyl)phenyl)-8-oxatricyclo[3.2.1.02,4]octane-2-carboxamide] yielded an IC50 (Chondrocyte, 288 h) of more than 30 µM. The Emax under setting [1] turned out to be 23%.

`COc1cc([C@@]23C[C@]2(C(=O)Nc2cccc(C(F)(F)F)c2C)[C@H]2C[C@H](O)[C@@H]3O2)ccn1` (racemic) [Example 27, rac-(1R,2R,4S,5R,6S)-6-hydroxy-4-(2-methoxypyridin-4-yl)-N-(2-methyl-3-(trifluoromethyl)phenyl)-8-oxatricyclo[3.2.1.02,4]octane-2-carboxamide] displayed an IC50 (Chondrocyte, 288 h) of more than 30 µM. Further, the Emax under setting [1] was 0%.

Turning to `O=C(Nc1cc(C(F)(F)F)ccc1F)[C@]12C[C@@]1(c1cccc(C(F)(F)F)c1)[C@H]1O[C@@H]2C[C@@H]1O` (racemic) [Example 81, rac-(1R,2R,4S,5R,6S)—N-(2-fluoro-5-(trifluoromethyl)phenyl)-6-hydroxy-4-(3-(trifluoromethyl)phenyl)-8-oxatricyclo[3.2.1.02,4]octane-2-carboxamide], the IC50 (Chondrocyte, 288 h) is more than 30 µM. Moreover, under setting [1], the Emax was determined as 47%.

In turn, `COc1cc([C@@]23C[C@]2(C(=O)Nc2ccc(C#N)c(C(F)(F)F)c2)[C@H]2C[C@H](O)[C@@H]3O2)ccn1` (racemic) [Example 38, rac-(1R,2R,4S,5R,6S)—N-(4-cyano-3-(trifluoromethyl)phenyl)-6-hydroxy-4-(2-methoxypyridin-4-yl)-8-oxatricyclo[3.2.1.02,4]octane-2-carboxamide] registered an IC50 (Chondrocyte, 288 h) of 24 µM. Also, under setting [1], the Emax worked out at 71%.

In turn, `O=C(Nc1cccc(C(F)(F)F)c1)[C@]12C[C@@]1(c1ccnc(F)c1)[C@H]1O[C@@H]2C[C@@H]1O` (racemic) [Example 9, rac-(1R,2R,4S,5R,6S)-4-(2-fluoropyridin-4-yl)-6-hydroxy-N-(3-(trifluoromethyl)phenyl)-8-oxatricyclo[3.2.1.02,4]octane-2-carboxamide] yielded an IC50 (Chondrocyte, 288 h) of more than 30 µM. Also, the Emax under setting [1] came to 32%.

As for `O=C(Nc1cc(C(F)(F)F)cc(C2CC2)n1)[C@]12C[C@@]1(c1ccnc(F)c1)[C@H]1O[C@@H]2C[C@@H]1O` (racemic) [Example 6, rac-(1R,2R,4S,5R,6S)—N-(6-cyclopropyl-4-(trifluoromethyl)pyridin-2-yl)-4-(2-fluoropyridin-4-yl)-6-hydroxy-8-oxatricyclo[3.2.1.02,4]octane-2-carboxamide], where the note is “Chondrocyte, 288 h”, the IC50 was more than 30 µM. Under setting [1], the Emax stood at 9%.
